From US6414014B1 (Bristol-Myers Squibb Company, priority 1992, dated 2002)

Experiments:
[1] = test system: patients suffering from ovarian carcinoma; assay: Multi-center, randomized comparative study of taxol in platinum pretreated ovarian carcinoma: objective response; format: in vivo
Source text: The high degree of success, greater than 10% of objective response, to treatment by patients suffering from drug refractory ovarian carcinoma is truly astonishing, since responses to drug refractory ovarian carcinoma are extremely uncommon. While experimental data is provided herein for the successful treatment of ovarian carcinoma with taxol using the present treatment protocol, it is to be understood that the treatment protocol can be used for the treatment of other forms of cancer with taxol, such as melanoma, renal cell carcinoma, and other cancers which are treatable with taxol.
(§1) Responses were evaluated every two cycles.
Patients with ovarian carcinoma included in the study had been treated with and were unresponsive to a minimum of one but no more than two platinum-containing chemotherapy regimens, and were required to have shown progression during or relapse after their last regimen of chemotherapy. Patients were treated every 21 days if allowed by toxicity.
While an emulsion of taxol in polyethoxylated caster oil in dehydrated alcohol is utilized as a vehicle in a preferred embodiment, it is contemplated that other pharmaceutically acceptable vehicles for taxol may be used.
This procedure enables the accurate accessment of the patient receiving the taxol.
Patients ranged between 18 and 75 years in age with an Eastern Cooperative Oncology Group, ECOG, performance status of 0, 1, or 2, and had to have recovered from all toxicities of previous treatment. Further, no prior chemotherapy or radiotherapy were allowed within four weeks prior to entry into the study (patients were also not entered into the study if there had been less than six weeks since prior mitomycin, nitrosureas, or high-dose carboplatin therapy). An adequate baseline bone marrow function was required, which was defined as a granulocyte count ≧2,000 cells/cmm and a platelet count ≧100,000 cells/cmm. Adequate hepatic and renal functions were required with normal hepatic function defined as total billirubin ≦1.5 times upper normal value and normal renal function defined as serum creatinine ≦1.5 times upper normal value. Patients with abdominal adenocarcinoma, a previous history of a trial or ventricular arrhythmias, congestive heart failure, myocardial infarction within six months preceding randomization, complete bowel obtruction, a pre-existing neuropathy <WHO grade 2, active infection, prior allergic reaction to drugs containing Cremaphor, or other serious medical condition were excluded from this study.
(§2) Eligible patients were randomized according to a computerized randomization log. During therapy, hematology data (hemoglobin, white blood cell count, granulocytes and platelets) were collected, and toxicity assessments were continuously made. After each cycle, a physical history update was recorded, as well as tumor measurement, performance status (ECOG), hematology, chemistry (serum creatinine, billirubin, alkaline phosphatase, (SLOT (AST), CA125) and a toxicity assessment. A quality of life assessment was also made after each cycle, and every two months until six months after treatment stopped.

[2] = Hematologic toxicity (myelotoxicity) in the randomized taxol study, weekly blood counts; format: in vivo, patients
Protocol: as §1, §2
White blood cell (WBC) counts, absolute neutrophil count (ANC), platelet counts, and hemoglobin (Hb) concentration were the primary variables used to evaluate treatment related myelosuppression. The World Health Orgination, WHO, grades of nadir for the entire study population of 157 patients during course 1 are presented in the table below. Leukopenia and neutropenia were the most frequent and severe hemotologic adverse effects observed during the first couse of treatment. 53% (83/156) of the patients had Grade III or IV neutropenia, while 39% (61/157) had Grade III or IV leukopenia.

[3] = TOTAL, all four arms, n = 157, course 1
[4] = arm 135/3 (mg/m^2/infusion hours), n = 39, course 1
[5] = arm 135/24 (mg/m^2/infusion hours), n = 44, course 1
[6] = arm 175/3 (mg/m^2/infusion hours), n = 29, course 1
[7] = arm 175/4 (mg/m^2/infusion hours), n = 45, course 1

Structure (SMILES): CC(=O)O[C@H]1C(=O)[C@@]2(C)[C@H]([C@H](OC(=O)c3ccccc3)[C@]3(O)C[C@H](OC(=O)[C@H](O)[C@@H](NC(=O)c4ccccc4)c4ccccc4)C(C)=C1C3(C)C)[C@]1(OC(C)=O)CO[C@@H]1C[C@@H]2O [taxol]
- stabilization of disease, patients with an early relapse after platinum [1]: 53%
- response to taxol in patients who had progressed on previous platinum containing chemotherapy ([1]; 3 out of 46): 7%
- response to taxol in patients considered resistant to platinum therapy ([1]; 14/114, progression on therapy or relapse within six months): 13%
- objective response rate, not evaluated and unevaluable patients excluded ([1]; 22/135 patients): 16%
- stabilization of disease, patients with disease truly refractory to platinum ([1]; 24/46): 52%
- response to taxol, platinum resistant patients with one previous regimen of platinum ([1]; in vivo): 15%
- response to taxol, platinum resistant patients with two previous regimens of platinum ([1]; in vivo): 10%
- patients with stable disease continued on taxol ([1]; of 157 patients): 51 patients
- patients with grade 4 neutropenia ([2]; 3-hour infusion, 8/68, course 1): 12%
- patients with grade 4 neutropenia ([2]; 24-hour taxol infusion, 51/88, course 1): 58%
- AMC Count, WHO grade 0 nadir, patients [2, 3]: 37 (24) n (%)
- AMC Count, WHO grade I nadir, patients [2, 3]: 13 (8) n (%)
- AMC Count, WHO grade II nadir, patients [2, 3]: 23 (15) n (%)
- AMC Count, WHO grade III nadir, patients [2, 3]: 24 (15) n (%)
- AMC Count, WHO grade IV nadir, patients [2, 3]: 59 (38) n (%)
- Platelet Count, WHO grade 0 nadir, patients [2, 3]: 147 (94) n (%)
- Platelet Count, WHO grade I nadir, patients [2, 3]: 6 (4) n (%)
- Platelet Count, WHO grade II nadir, patients [2, 3]: 2 (1) n (%)
- Platelet Count, WHO grade III nadir, patients [2, 3]: 1 (1) n (%)
- Platelet Count, WHO grade IV nadir, patients [2, 3]: 1 (1) n (%)
- WBC Count, WHO grade 0 nadir, patients [2, 3]: 31 (20) n (%)
- WBC Count, WHO grade I nadir, patients [2, 3]: 29 (18) n (%)
- WBC Count, WHO grade II nadir, patients [2, 3]: 36 (23) n (%)
- WBC Count, WHO grade III nadir, patients [2, 3]: 50 (32) n (%)
- WBC Count, WHO grade IV nadir, patients [2, 3]: 11 (7) n (%)
- patients with severe neutropenia (WHO Grade III and IV) during at least one course ([2]; all arms): 63%
- AMC Count, WHO grade 0 nadir, patients [2, 4]: 18 (46) n (%)
- AMC Count, WHO grade I nadir, patients [2, 4]: 8 (21) n (%)
- AMC Count, WHO grade II nadir, patients [2, 4]: 8 (21) n (%)
- AMC Count, WHO grade III nadir, patients [2, 4]: 4 (10) n (%)
- AMC Count, WHO grade IV nadir, patients [2, 4]: 1 (3) n (%)
- Platelet Count, WHO grade 0 nadir, patients [2, 4]: 36 (92) n (%)
- Platelet Count, WHO grade I nadir, patients [2, 4]: 2 (5) n (%)
- Platelet Count, WHO grade II nadir, patients [2, 4]: 1 (3) n (%)
- Platelet Count, WHO grade III nadir, patients [2, 4]: 0 n (%)
- Platelet Count, WHO grade IV nadir, patients [2, 4]: 0 n (%)
- WBC Count, WHO grade 0 nadir, patients [2, 4]: 15 (38) n (%)
- WBC Count, WHO grade I nadir, patients [2, 4]: 13 (33) n (%)
- WBC Count, WHO grade II nadir, patients [2, 4]: 7 (18) n (%)
- WBC Count, WHO grade III nadir, patients [2, 4]: 3 (8) n (%)
- WBC Count, WHO grade IV nadir, patients [2, 4]: 1(3) n (%)
- AMC Count, WHO grade 0 nadir, patients [2, 5]: 6 (14) n (%)
- AMC Count, WHO grade I nadir, patients [2, 5]: 2 (15) n (%)
- AMC Count, WHO grade II nadir, patients [2, 5]: 7 (16) n (%)
- AMC Count, WHO grade III nadir, patients [2, 5]: 6 (14) n (%)
- AMC Count, WHO grade IV nadir, patients [2, 5]: 23 (52) n (%)
- Platelet Count, WHO grade 0 nadir, patients [2, 5]: 43 (98) n (%)
- Platelet Count, WHO grade I nadir, patients [2, 5]: 1 (2) n (%)
- Platelet Count, WHO grade II nadir, patients [2, 5]: 0 n (%)
- Platelet Count, WHO grade III nadir, patients [2, 5]: 0 n (%)
- Platelet Count, WHO grade IV nadir, patients [2, 5]: 0 n (%)
- WBC Count, WHO grade 0 nadir, patients [2, 5]: 4 (9) n (%)
- WBC Count, WHO grade I nadir, patients [2, 5]: 5 (11) n (%)
- WBC Count, WHO grade II nadir, patients [2, 5]: 11 (25) n (%)
- WBC Count, WHO grade III nadir, patients [2, 5]: 20 (46) n (%)
- WBC Count, WHO grade IV nadir, patients [2, 5]: 4 (9) n (%)
- AMC Count, WHO grade 0 nadir, patients [2, 6]: 11 (38) n (%)
- AMC Count, WHO grade I nadir, patients [2, 6]: 2 (7) n (%)
- AMC Count, WHO grade II nadir, patients [2, 6]: 3 (10) n (%)
- AMC Count, WHO grade III nadir, patients [2, 6]: 6 (21) n (%)
- AMC Count, WHO grade IV nadir, patients [2, 6]: 7 (24) n (%)
- Platelet Count, WHO grade 0 nadir, patients [2, 6]: 29 (100) n (%)
- Platelet Count, WHO grade I nadir, patients [2, 6]: 0 n (%)
- Platelet Count, WHO grade II nadir, patients [2, 6]: 0 n (%)
- Platelet Count, WHO grade III nadir, patients [2, 6]: 0 n (%)
- Platelet Count, WHO grade IV nadir, patients [2, 6]: 0 n (%)
- WBC Count, WHO grade 0 nadir, patients [2, 6]: 11 (38) n (%)
- WBC Count, WHO grade I nadir, patients [2, 6]: 6 (21) n (%)
- WBC Count, WHO grade II nadir, patients [2, 6]: 7 (24) n (%)
- WBC Count, WHO grade III nadir, patients [2, 6]: 5 (17) n (%)
- WBC Count, WHO grade IV nadir, patients [2, 6]: 0 — n (%)
- AMC Count, WHO grade 0 nadir, patients [2, 7]: 2 (5) n (%)
- AMC Count, WHO grade I nadir, patients [2, 7]: 1 (2) n (%)
- AMC Count, WHO grade II nadir, patients [2, 7]: 5 (11) n (%)
- AMC Count, WHO grade III nadir, patients [2, 7]: 8 (18) n (%)
- AMC Count, WHO grade IV nadir, patients [2, 7]: 28 (63) n (%)
- Platelet Count, WHO grade 0 nadir, patients [2, 7]: 39 (87) n (%)
- Platelet Count, WHO grade I nadir, patients [2, 7]: 3 (7) n (%)
- Platelet Count, WHO grade II nadir, patients [2, 7]: 1 (2) n (%)
- Platelet Count, WHO grade III nadir, patients [2, 7]: 1 (2) n (%)
- Platelet Count, WHO grade IV nadir, patients [2, 7]: 1 (2) n (%)
- WBC Count, WHO grade 0 nadir, patients [2, 7]: 1 (2) n (%)
- WBC Count, WHO grade I nadir, patients [2, 7]: 5 (11) n (%)
- WBC Count, WHO grade II nadir, patients [2, 7]: 11 (25) n (%)
- WBC Count, WHO grade III nadir, patients [2, 7]: 22 (49) n (%)
- WBC Count, WHO grade IV nadir, patients [2, 7]: 6 (13) n (%)
- severe leukopenia (grade 3 and grade 4 pooled), 24-hour versus 3-hour infusion ([2]; course 1): more frequently
- patients with Grade III or IV leukopenia ([2]; course 1, 61/157, all arms): 39%
- patients with Grade III or IV neutropenia ([2]; course 1, 83/156, all arms): 53%
- patients with severe thrombocytopenia ([2]; course 1, two patients, all arms): 1%
- incidence of severe neutropenia ([2]; high dose arms, 55/74): 74%
- incidence of severe neutropenia ([2]; long-term infusion arms): 85%
- anemia of any grade in patients with normal baseline Hb values ([2]; long-term infusion, 26/55): 47%
- incidence of severe neutropenia ([2]; low dose arms, 43/83): 52%
- anemia of any grade in patients with normal baseline Hb values ([2]; short-term infusion): 28%
- incidence of severe neutropenia ([2]; short-term infusion arms): 32%
